Marks after values point to notes of the source that are not given here. Peptide text beside a SMILES is read from it. * marks the point of attachment. X65 = O=C1C=CC(=O)N1c1cccc(CCCCCCCCCCCCC(=O)*)c1; X58 = O=C1C=CC(=O)N1c1cccc(CCCCCCCCCCCC(=O)*)c1
Legend:
[1] = tested on: carrageenan-induced toe swelling; test: Carrageenan-induced toe swelling in rats; format: in vivo; details: SD rats; for Swelling degree 1 h: 1 h after carrageenan; for Swelling degree 3 h: 3 h after carrageenan; for Swelling degree 5 h: 5 h after carrageenan; for Swelling degree 7 h: 7 h after carrageenan
Summary of the method: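 Rats dosed by injection once daily for 3 d, controls given equal-volume saline. Right hind paw volume measured by water displacement to a marked joint line; swelling degree (mL) is paw volume after carrageenan inflammation minus volume before.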

[2] = tested on: choroidal neovascularization; test: Choroidal neovascularization in rats (laser photocoagulation, FFA); format: in vivo; details: BN rats
Summary of the method: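 Male BN rats aged 6-8 weeks were given 8 krypton-laser spots around the optic disc (647.1 nm, 350 mW, 50 μm, 0.05 s). Once the model was confirmed, groups of 5 got daily intravitreal compound at 0.05 μM or saline for 1 week. FFA followed at 3, 7, 14 and 28 days after dosing.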

[3] = tested on: IL-1β production by mouse peritoneal macrophages; test: IL-1β production by mouse peritoneal macrophages (ELISA); format: cell-based; details: for Inhibition rate: IL-1β production, vs model group; for IL-1β: mouse peritoneal macrophages, 48 h, ELISA
Summary of the method: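 Starch-elicited (6%, i.p.) mouse peritoneal macrophages, 2×10^6 cells/mL in RPMI 1640, adhered 3 h; non-adherent cells washed off. Polypeptides added at low, medium and high concentrations, Dex as positive control; cultured 48 h, supernatant IL-1β measured.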

[4] = tested on: xylene-induced ear swelling; test: Xylene-induced mouse ear swelling; format: in vivo; details: Kunming mice, injected once a day for 5 days; for Swelling degree / Swelling degree (mg): right minus left ear piece weight 2 h after xylene; for Inhibition rate (%): xylene-induced ear swelling
Summary of the method: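 Kunming mice dosed by injection once daily for 5 days; 1 h after last dose, 0.05 mL xylene applied to right ear, left ear untreated. Mice killed 2 h later; punched ear pieces weighed. Swelling degree = right minus left ear weight; swelling rate = swelling degree/left ear weight ×100%.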

HUVECs = test: Transwell migration inhibition on HUVECs; format: cell-based, human; details: for Inhibition rate (%): HUVEC migration vs blank control; for Cell migration number (Mean ± SD): HUVECs, transwell, 24 h
[5] = day 3 after administration, total light spot number was 297, 0.05 μM in the vitreous chamber once a day for 1 week
[6] = day 7 after administration, total light spot number was 186, 0.05 μM in the vitreous chamber once a day for 1 week
[7] = day 14 after administration, total light spot number was 137, 0.05 μM in the vitreous chamber once a day for 1 week
[8] = day 28 after administration, total light spot number was 69, 0.05 μM in the vitreous chamber once a day for 1 week

| SMILES | Swelling degree 1 h ([1]; 2.0 mg/kg once a day for 3 d) [mg] | Swelling degree 3 h ([1]; 2.0 mg/kg once a day for 3 d) [mg] | Swelling degree 5 h ([1]; 2.0 mg/kg once a day for 3 d) [mg] | Swelling degree 7 h ([1]; 2.0 mg/kg once a day for 3 d) [mg] | Swelling degree 1 h ([1]; 4.0 mg/kg once a day for 3 d) [mg] | Swelling degree 3 h ([1]; 4.0 mg/kg once a day for 3 d) [mg] | Swelling degree 5 h ([1]; 4.0 mg/kg once a day for 3 d) [mg] | Swelling degree 7 h ([1]; 4.0 mg/kg once a day for 3 d) [mg] | CNV Incidence (%) [2, 5] [%] | Leakage Light spot number [2, 5] | CNV Incidence (%) [2, 6] [%] | Leakage Light spot number [2, 6] | CNV Incidence (%) [2, 7] [%] | Leakage Light spot number [2, 7] | CNV Incidence (%) [2, 8] [%] | Leakage Light spot number [2, 8] | Inhibition rate ([3]; dose 0.05 μM) [%] | IL-1β ([3]; dose 0.05 μM) [pg/mL] | Inhibition rate ([3]; dose 0.1 μM) [%] | IL-1β ([3]; dose 0.1 μM) [pg/mL] | other results |
| --- | --- | --- | --- | --- | --- | --- | --- | --- | --- | --- | --- | --- | --- | --- | --- | --- | --- | --- | --- | --- | --- |
| C[C@H](NC(=O)CNC(=O)[C@H](CCCNC(=N)N)NC(=O)CCCCCCCCCCCc1cccc(N2C(=O)C=CC2=O)c1)C(=O)N[C@@H](CC(=O)O)C(=O)N[C@@H](CCCNC(=N)N)C(=O)N[C@@H](C)C(=O)NCC(=O)NCC(=O)NCC(=O)NCC(=O)N[C@@H](CCCNC(=N)N)C(=O)NCC(=O)N[C@@H](CC(=O)O)C(=O)O [X35] (X58-RGADRAGGGGRGD-OH) | 0.25 ± 0.11 | 0.38 ± 0.16 | 0.38 ± 0.19 | 0.33 ± 0.15 | 0.23 ± 0.11 | 0.36 ± 0.16 | 0.44 ± 0.14 | 0.32 ± 0.12 | 52.19 | 155 | 47.85 | 89 | 46.72 | 64 | 44.93 | 31 | 23.62 | 718.81 ± 11.53 | 30.79 | 651.42 ± 15.51 | Inhibition rate ([3]; dose 0.2 μM): 34.61%; IL-1β ([3]; dose 0.2 μM): 615.43 ± 17.18 pg/mL; Swelling degree ([4]; dose 2 mg/kg): 5.59 ± 0.91 mg; Inhibition rate (%) ([4]; dose 2 mg/kg): 10.27%; Swelling degree (mg) ([4]; dose 4 mg/kg): 4.78 ± 0.64* mg; Inhibition rate (%) ([4]; dose 4 mg/kg): 23.27%; Swelling degree (mg) ([4]; dose 8 mg/kg): 3.48 ± 0.28** mg; Inhibition rate (%) ([4]; dose 8 mg/kg): 44.14%; Inhibition rate (%) (HUVECs; dose 0.05 μM): 42.61%; Inhibition rate (%) (HUVECs; dose 0.1 μM): 50.57%; Inhibition rate (%) (HUVECs; dose 0.2 μM): 56.96%; Cell migration number (Mean ± SD) (HUVECs; dose 0.05 μM): 615.18 ± 57.71; Cell migration number (Mean ± SD) (HUVECs; dose 0.1 μM): 529.83 ± 68.02; Cell migration number (Mean ± SD) (HUVECs; dose 0.2 μM): 461.34 ± 66.82 |
| C[C@H](NC(=O)CNC(=O)[C@H](CCCNC(=N)N)NC(=O)CCCCCCCCCCCCc1cccc(N2C(=O)C=CC2=O)c1)C(=O)N[C@@H](CC(=O)O)C(=O)N[C@@H](CCCNC(=N)N)C(=O)N[C@@H](C)C(=O)NCC(=O)NCC(=O)NCC(=O)NCC(=O)N[C@@H](CCCNC(=N)N)C(=O)NCC(=O)N[C@@H](CC(=O)O)C(=O)O [X36] (X65-RGADRAGGGGRGD-OH) | 0.29 ± 0.17 | 0.34 ± 0.18 | 0.43 ± 0.13 | 0.32 ± 0.15 | 0.23 ± 0.15 | 0.33 ± 0.13 | 0.35 ± 0.12 | 0.32 ± 0.17 | 50.51 | 150 | 49.46 | 92 | 40.15 | 55 | 43.48 | 30 | 17.18 | 779.49 ± 11.56 | 34.09 | 620.34 ± 15.26 | Inhibition rate ([3]; dose 0.2 μM): 34.16%; IL-1β ([3]; dose 0.2 μM): 619.62 ± 11.89 pg/mL; Swelling degree ([4]; dose 2 mg/kg): 5.37 ± 0.84 mg; Inhibition rate (%) ([4]; dose 2 mg/kg): 13.80%; Swelling degree ([4]; dose 4 mg/kg): 5.37 ± 0.21 mg; Inhibition rate (%) ([4]; dose 4 mg/kg): 13.80%; Swelling degree (mg) ([4]; dose 8 mg/kg): 4.7 ± 0.97* mg; Inhibition rate (%) ([4]; dose 8 mg/kg): 24.56%; Inhibition rate (%) (HUVECs; dose 0.05 μM): 52.07%; Inhibition rate (%) (HUVECs; dose 0.1 μM): 56.76%; Inhibition rate (%) (HUVECs; dose 0.2 μM): 57.92%; Cell migration number (Mean ± SD) (HUVECs; dose 0.05 μM): 513.79 ± 55.46; Cell migration number (Mean ± SD) (HUVECs; dose 0.1 μM): 463.47 ± 50.27; Cell migration number (Mean ± SD) (HUVECs; dose 0.2 μM): 451.01 ± 43.85 |

Source: patent publication US20200270309A1, “MALEIMIDE GROUP-MODIFIED ANGIOGENESIS INHIBITOR HM-1 AND USE THEREOF” (NANJING ANJI BIOLOGICAL TECHNOLOGY CO., LTD, priority 2017, published 2020)
